Source: patent publication US20130205416A1 (priority 2010, published 2013)
“And” between values parts separate entries of the source, which are not always exact repeats. Equal values may be shown once. Square brackets hold non-standard residues; d marks the D form. Ends that are not written are not given here.

Key:
A/WSN/33 H1N1 virus [1] = type: cell-based, Influenza A virus
[2] = system: PR8/Eng09 H1N1 virus (A/England/195/09); type: cell-based, Influenza A virus
[3] = system: PR8/Vic H3N2 virus (A/Victoria/3/75); type: cell-based, Influenza A virus
[4] = system: PR8/Viet H5N1 virus (A/Vietnam/1194/04); type: cell-based, Influenza A virus
A/WSN/33 influenza virus = system: A/WSN/33 influenza virus; parameters: species or system BALB/c mice; conditions: mouse
A/WSN/33 H1N1 virus [5] = type: cell-based, Influenza A virus; remark: listed apart in the source
[6] = system: H1N1 viruses (A/WSN/33 and A/England/195/09); conditions: for IC50: viruses (A/WSN/33 and A/England/195/09)
[7] = mouse, in vivo
[8] = system: H3N2 viruses (A/Udorn and A/Victoria/3/75); conditions: for IC50: viruses (A/Udorn and A/Victoria/3/75)
[9] = system: attachment of A/WSN/33 (H1N1) virus to MDCK cells; type: cell-based, Influenza A virus
[10] = target: recombinant Haemagglutinin (HA) (California 04/2009 H1N1 Influenza A) (Influenza A virus, UniProt C3W5S1); type: binding
[11] = system: Semliki Forest virus (SFV); type: cell-based
[12] = system: human parainfluenza virus; type: cell-based

Chain of recombinant Haemagglutinin (HA) (California 04/2009 H1N1 Influenza A) (C3W5S1 entry or part of it, added parts left off): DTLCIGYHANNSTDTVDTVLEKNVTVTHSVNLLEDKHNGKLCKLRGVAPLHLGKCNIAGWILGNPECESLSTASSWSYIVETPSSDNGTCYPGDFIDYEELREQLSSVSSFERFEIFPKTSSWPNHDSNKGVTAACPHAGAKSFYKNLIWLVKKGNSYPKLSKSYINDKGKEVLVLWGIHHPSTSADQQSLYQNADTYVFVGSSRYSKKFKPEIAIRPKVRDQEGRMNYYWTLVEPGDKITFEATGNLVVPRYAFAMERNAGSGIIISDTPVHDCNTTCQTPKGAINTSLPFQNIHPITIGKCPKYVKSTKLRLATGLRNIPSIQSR

Substance: RRKKWLVFFVIYFFR [FP4, RRKKWLVFFVIYFFR]
- knockdown of plaque formation (A/WSN/33 H1N1 virus [1]): 100%
- knockdown [2]: 90%
- knockdown [3]: 97%
- knockdown [4]: complete knockdown
- agglutination end point (horse RBCs): 6.25 µg/mL
- agglutination end point (human RBCs): 0.78 µg/mL
- inhibition of lung viral titres in vivo (A/WSN/33 influenza virus): effective
- clinical indications (A/WSN/33 influenza virus; in vivo): no clinical indications
- survival of mice (A/WSN/33 influenza virus; in vivo): 100%
- reduction in virus yield (A/WSN/33 H1N1 virus [5]): 99% and 50%
- IC50 [6]: 66 to 100 nM
- immunogenicity (serum IgG by ELISA) [7]: neither FP2 nor FP4 peptides were immunogenic

Substance: WLVFFVRRKK [FP8]
- anti-viral activity (A/WSN/33 H1N1 virus [1]): substantial anti-viral activity
- knockdown of plaque formation (A/WSN/33 H1N1 virus [1]): 94%

Substance: IVWFYLFRFFVF [FP10, IVWFYLFRFFVF]
- inhibition of lung viral titres in vivo (A/WSN/33 influenza virus): values similar to the control groups
- IC50 [6]: < 1.48 nM
- IC50 [8]: 72 nM

Substance: WLVFFVIFYFFRRRKK [FP3, WLVFFVIFYFFRRRKK]
- knockdown of plaque formation (A/WSN/33 H1N1 virus [1]): 100%
- inhibition of viral attachment [9]: completely inhibited
- binding to HA [10]: can bind Influenza A HA
- agglutination end point (horse RBCs): 6.25 µg/mL
- agglutination end point (human RBCs): 0.78 µg/mL
- IC50 [6]: 66 to 100 nM
- inhibition of H3N2 infection [8]: only weakly inhibit
- IC50 [8]: 16000 nM

Substance: FP1-D: FP1 prepared with D-amino acids (SEQ ID NO 20) ([dW][dL][dV][dF][dF][dV][dI][dF][dY][dF][dF][dR])
- reduction in virus yield (A/WSN/33 H1N1 virus [5]): 85% and 68%
- inhibition of H1N1 virus infection [6]: inhibit
- inhibition of H3N2 virus infection [8]: inhibit

Substance: FFVIFYRRKK [FP9, FFVIFYRRKK]
- anti-viral activity (A/WSN/33 H1N1 virus [1]): substantial anti-viral activity
- knockdown of plaque formation (A/WSN/33 H1N1 virus [1]): 94%
- inhibition of H1N1 infection [6]: very effective
- IC50 [6]: 1500 nM
- inhibition of H3N2 infection [8]: to a lesser extent

Substance: PEG300-RRKKWLVFFVIFYFFR [FP4-PEG]
- reduction in virus yield (A/WSN/33 H1N1 virus [5]): 68%
- virus yield (A/WSN/33 H1N1 virus [5]): No virus was detected

Substance: WLVFFVIFYFFR [FP1]
- knockdown of plaque formation (A/WSN/33 H1N1 virus [1]): 94%
- antiviral effects [11]: no antiviral effects
- antiviral effects [12]: no antiviral effects
- antiviral activity in vivo (body weight, lung virus titre) (A/WSN/33 influenza virus): potent antiviral activity

Substance: RRKK-IFYFFR [FP7]
- inhibition of H1N1 infection [6]: failed to inhibit
- inhibition of H3N2 infection [8]: failed to inhibit

Substance: WLVFFVIAYFAR [FP2, WLVFFVIAYFAR]
- IC50 [6]: 1.6 nM
- IC50 [8]: 1.6 nM
